Source: PubChem BioAssay AID1963844 (Molecular Pharmacology Branch, DTP, NCI, 2024)
pIC50: −log10 of the molar value.

Tested on: 422866-222-R5-J1-PDC complex spheroid viability
Test: Anticancer human tumor 422866-222-R5-J1-PDC patient-derived pancreatic adenocarcinoma cell line growth inhibition [POLQ]
Conditions: for pIC50: curve of first compound; for viability, T/C: stronger effect = lower value
How it was run: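 PDC + HUVEC + MSC complex spheroids; POLQ inhibitors ± partner drugs; top conc. at/near clinical Cmax, else 10 microM (SN-38 1 microM), half-log dilutions; 37 degrees C, 5% CO2.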

[1] = second compound 0.0316 µM, first compound 0.0316 µM
[2] = second compound 0.0316 µM, first compound 0.1 µM
[3] = second compound 0.0316 µM, first compound 0.316 µM
[4] = second compound 0.0316 µM, first compound 1 µM
[5] = second compound 0.0316 µM, first compound 3.16 µM
[6] = second compound 0.0316 µM, first compound 10 µM
[7] = second compound 0.1 µM, first compound 0.0316 µM
[8] = second compound 0.1 µM, first compound 0.1 µM
[9] = second compound 0.1 µM, first compound 0.316 µM
[10] = second compound 0.1 µM, first compound 1 µM
[11] = second compound 0.1 µM, first compound 3.16 µM
[12] = second compound 0.1 µM, first compound 10 µM
[13] = second compound 0.316 µM, first compound 0.0316 µM
[14] = second compound 0.316 µM, first compound 0.1 µM
[15] = second compound 0.316 µM, first compound 0.316 µM
[16] = second compound 0.316 µM, first compound 1 µM
[17] = second compound 0.316 µM, first compound 3.16 µM
[18] = second compound 0.316 µM, first compound 10 µM
[19] = second compound 1 µM, first compound 0.0316 µM
[20] = second compound 1 µM, first compound 0.1 µM
[21] = second compound 1 µM, first compound 0.316 µM
[22] = second compound 1 µM, first compound 1 µM
[23] = second compound 1 µM, first compound 3.16 µM
[24] = second compound 1 µM, first compound 10 µM
[25] = second compound 3.16 µM, first compound 0.0316 µM
[26] = second compound 3.16 µM, first compound 0.1 µM
[27] = second compound 3.16 µM, first compound 0.316 µM
[28] = second compound 3.16 µM, first compound 1 µM
[29] = second compound 3.16 µM, first compound 3.16 µM
[30] = second compound 3.16 µM, first compound 10 µM
[31] = second compound 10 µM, first compound 0.0316 µM
[32] = second compound 10 µM, first compound 0.1 µM
[33] = second compound 10 µM, first compound 0.316 µM
[34] = second compound 10 µM, first compound 1 µM
[35] = second compound 10 µM, first compound 3.16 µM
[36] = second compound 10 µM, first compound 10 µM
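Also: spheroids exposed to compounds for one week before readout.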
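For viability, T/C in this document: percent of DMSO vehicle wells luminescence so 100% = untreated viability.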

CC1COCCN1c1cc(C2(O)CC3CCC(C2)O3)c2cnn(-c3ccn[nH]3)c2n1 (stereo not drawn) + COC1C(OC(N)=O)C(O)C(Oc2ccc3c(O)c(NC(=O)c4ccc(O)c(CC=C(C)C)c4)c(=O)oc3c2C)OC1(C)C
pIC50 (second compound 0.0316 µM): < 5.00 | pIC50 (second compound 0.1 µM): < 5.00 | pIC50 (second compound 0.316 µM): > 7.50 | pIC50 (second compound 1 µM): < 5.00 | pIC50 (second compound 3.16 µM): < 5.00 | pIC50 (second compound 10 µM): < 5.00 | viability, T/C [1]: 71.4% | viability, T/C [2]: 47.9% | viability, T/C [3]: 45.8% | viability, T/C [4]: 83.7% | viability, T/C [5]: 70.7% | viability, T/C [6]: 79.8% | viability, T/C [7]: 73.5% | viability, T/C [8]: 47% | viability, T/C [9]: 41.9% | viability, T/C [10]: 65.3% | viability, T/C [11]: 76.8% | viability, T/C [12]: 66.4% | viability, T/C [13]: 72.9% | viability, T/C [14]: 36.2% | viability, T/C [15]: 37% | viability, T/C [16]: 77.8% | viability, T/C [17]: 71.5% | viability, T/C [18]: 71.7% | viability, T/C [19]: 75.6% | viability, T/C [20]: 45.3% | viability, T/C [21]: 47.8% | viability, T/C [22]: 77.7% | viability, T/C [23]: 63.4% | viability, T/C [24]: 77.7% | viability, T/C [25]: 84.3% | viability, T/C [26]: 44.4% | viability, T/C [27]: 48% | viability, T/C [28]: 75.2% | viability, T/C [29]: 67.5% | viability, T/C [30]: 71.1% | viability, T/C [31]: 79.1% | viability, T/C [32]: 52.7% | viability, T/C [33]: 40.7% | viability, T/C [34]: 82.9% | viability, T/C [35]: 75.2% | viability, T/C [36]: 65.6%

Nc1ccn(C2OC(CO)C(O)C2(F)F)c(=O)n1 (stereo not drawn) + Nc1ccc(C#CCN(C(=O)Cc2ncc(C(F)(F)F)cc2C(F)(F)F)c2ccc(F)cc2)nn1
pIC50 (second compound 0.0316 µM): > 7.50 | pIC50 (second compound 0.1 µM): 7.26 | pIC50 (second compound 0.316 µM): 7.14 | pIC50 (second compound 1 µM): 7.15 | pIC50 (second compound 3.16 µM): 6.93 | pIC50 (second compound 10 µM): 6.27 | viability, T/C [1]: 57.9% | viability, T/C [2]: 42.5% | viability, T/C [3]: 28.7% | viability, T/C [4]: 38.4% | viability, T/C [5]: 36.9% | viability, T/C [6]: 39.2% | viability, T/C [7]: 62.2% | viability, T/C [8]: 37.7% | viability, T/C [9]: 30.6% | viability, T/C [10]: 32.4% | viability, T/C [11]: 38.1% | viability, T/C [12]: 36.4% | viability, T/C [13]: 66.8% | viability, T/C [14]: 43.5% | viability, T/C [15]: 30.4% | viability, T/C [16]: 40.1% | viability, T/C [17]: 33.2% | viability, T/C [18]: 34.4% | viability, T/C [19]: 75% | viability, T/C [20]: 39.8% | viability, T/C [21]: 36.8% | viability, T/C [22]: 34.3% | viability, T/C [23]: 36.1% | viability, T/C [24]: 49% | viability, T/C [25]: 72.8% | viability, T/C [26]: 52.5% | viability, T/C [27]: 35.3% | viability, T/C [28]: 31.8% | viability, T/C [29]: 34.1% | viability, T/C [30]: 41% | viability, T/C [31]: 98.8% | viability, T/C [32]: 67.9% | viability, T/C [33]: 68.8% | viability, T/C [34]: 34.8% | viability, T/C [35]: 31.7% | viability, T/C [36]: 30.6%

CCc1cc2c(N3CCc4c(cc(Cn5ccnc5)cc4-c4cn(C)nc4C(F)(F)F)C3=O)cc(C)nc2c(OC)n1 + COC1C(OC(N)=O)C(O)C(Oc2ccc3c(O)c(NC(=O)c4ccc(O)c(CC=C(C)C)c4)c(=O)oc3c2C)OC1(C)C
pIC50 (second compound 0.0316 µM): < 5.00 | pIC50 (second compound 0.1 µM): < 5.00 | pIC50 (second compound 0.316 µM): < 5.00 | pIC50 (second compound 1 µM): < 5.00 | pIC50 (second compound 3.16 µM): < 5.00 | pIC50 (second compound 10 µM): < 5.00 | viability, T/C [1]: 96.1% | viability, T/C [2]: 95.7% | viability, T/C [3]: 92.4% | viability, T/C [4]: 129% | viability, T/C [5]: 125% | viability, T/C [6]: 119% | viability, T/C [7]: 100% | viability, T/C [8]: 88.8% | viability, T/C [9]: 94.6% | viability, T/C [10]: 126% | viability, T/C [11]: 110% | viability, T/C [12]: 93.7% | viability, T/C [13]: 93.7% | viability, T/C [14]: 94.5% | viability, T/C [15]: 108% | viability, T/C [16]: 102% | viability, T/C [17]: 102% | viability, T/C [18]: 111% | viability, T/C [19]: 97.7% | viability, T/C [20]: 98% | viability, T/C [21]: 96.5% | viability, T/C [22]: 92.8% | viability, T/C [23]: 121% | viability, T/C [24]: 108% | viability, T/C [25]: 102% | viability, T/C [26]: 101% | viability, T/C [27]: 123% | viability, T/C [28]: 106% | viability, T/C [29]: 123% | viability, T/C [30]: 116% | viability, T/C [31]: 102% | viability, T/C [32]: 85.6% | viability, T/C [33]: 106% | viability, T/C [34]: 95.1% | viability, T/C [35]: 109% | viability, T/C [36]: 102%

CC[C@@]1(O)C(=O)OCc2c1cc1n(c2=O)Cc2cc3c(CN(C)C)c(O)ccc3nc2-1 + COC1C(OC(N)=O)C(O)C(Oc2ccc3c(O)c(NC(=O)c4ccc(O)c(CC=C(C)C)c4)c(=O)oc3c2C)OC1(C)C
pIC50 (second compound 0.0316 µM): 7.64 | pIC50 (second compound 0.1 µM): 7.67 | pIC50 (second compound 0.316 µM): 7.63 | pIC50 (second compound 1 µM): 7.68 | pIC50 (second compound 3.16 µM): 7.59 | pIC50 (second compound 10 µM): 7.65 | viability, T/C (second compound 0.0316 µM, first compound 0.000316 µM): 105% | viability, T/C (second compound 0.0316 µM, first compound 0.001 µM): 92.5% | viability, T/C (second compound 0.0316 µM, first compound 0.00316 µM): 96.7% | viability, T/C (second compound 0.0316 µM, first compound 0.01 µM): 77% | viability, T/C [1]: 39.2% | viability, T/C [2]: 32.7% | viability, T/C (second compound 0.1 µM, first compound 0.000316 µM): 92.1% | viability, T/C (second compound 0.1 µM, first compound 0.001 µM): 96.3% | viability, T/C (second compound 0.1 µM, first compound 0.00316 µM): 99.4% | viability, T/C (second compound 0.1 µM, first compound 0.01 µM): 77.8% | viability, T/C [7]: 32.3% | viability, T/C [8]: 40.1% | viability, T/C (second compound 0.316 µM, first compound 0.000316 µM): 113% | viability, T/C (second compound 0.316 µM, first compound 0.001 µM): 97.9% | viability, T/C (second compound 0.316 µM, first compound 0.00316 µM): 85.4% | viability, T/C (second compound 0.316 µM, first compound 0.01 µM): 69.1% | viability, T/C [13]: 37.3% | viability, T/C [14]: 39.4% | viability, T/C (second compound 1 µM, first compound 0.000316 µM): 106% | viability, T/C (second compound 1 µM, first compound 0.001 µM): 92.3% | viability, T/C (second compound 1 µM, first compound 0.00316 µM): 92% | viability, T/C (second compound 1 µM, first compound 0.01 µM): 61.8% | viability, T/C [19]: 43.1% | viability, T/C [20]: 35.6% | viability, T/C (second compound 3.16 µM, first compound 0.000316 µM): 96.4% | viability, T/C (second compound 3.16 µM, first compound 0.001 µM): 105% | viability, T/C (second compound 3.16 µM, first compound 0.00316 µM): 90.9% | viability, T/C (second compound 3.16 µM, first compound 0.01 µM): 71.5% | viability, T/C [25]: 45.3% | viability, T/C [26]: 37.8% | viability, T/C (second compound 10 µM, first compound 0.000316 µM): 93.8% | viability, T/C (second compound 10 µM, first compound 0.001 µM): 95.2% | viability, T/C (second compound 10 µM, first compound 0.00316 µM): 83.2% | viability, T/C (second compound 10 µM, first compound 0.01 µM): 71.6% | viability, T/C [31]: 39.8% | viability, T/C [32]: 30.8%
